Test results from patent US10064913B2, “Immunotherapy against several tumors including gastrointestinal and gastric cancer” (IMMATICS BIOTECHNOLOGIES GMBH, priority 2010, dated 2018).

Tested on: CD8+ T cells
Experiment: In vitro immunogenicity of HLA-A*2402 restricted TUMAPs (aAPC priming of CD8+ T cells, multimer staining)
Type: cell-based, human
Conditions: HLA-A*2402 peptides, CD8+ T cells of healthy HLA-A*24 donors, three stimulation cycles with pMHC/anti-CD28 beads; for Wells positive/evaluable [%]: at least 48 wells evaluable; for Donors positive/evaluable [%]: at least four donors evaluable
Description: In order to perform in vitro stimulations by artificial antigen presenting cells (aAPC) loaded with peptide-MHC complex (pMHC) and anti-CD28 antibody, we first isolated CD8 T cells from fresh HLA-A*24 leukapheresis products or from HLA-A*2 buffy coats of healthy donors obtained from the Blood Bank Tuebingen.
CD8 T cells were either directly enriched or PBMCs (peripheral blood mononuclear cells) were isolated first by using standard gradient separation medium (PAA, Colbe, Germany). Isolated CD8 lymphocytes or PBMCs were incubated until use in T-cell medium (TCM) consisting of RPMI-Glutamax (Invitrogen, Karlsruhe, Germany) supplemented with 10% heat inactivated human AB serum (PAN-Biotech, Aidenbach, Germany), 100 U/ml Penicillin/100 μg/ml Streptomycin (Cambrex, Cologne, Germany), 1 mM sodium pyruvate (CC Pro, Oberdorla, Germany), 20 μg/ml Gentamycin (Cambrex). […] Isolation of CD8+ lymphocytes was performed by positive selection using CD8 MicroBeads (Miltenyi Biotec, Bergisch-Gladbach, Germany).
800.000 beads/200 μl were coated in 96-well plates in the presence of 600 ng biotin-anti-CD28 plus 200 ng relevant biotin-pMHC (high density beads). […] Half of the medium was then exchanged by fresh TCM supplemented with 80 U/ml IL-2 and incubation was continued for 3-4 days at 37° C. This stimulation cycle was performed for a total of three times.
In vitro priming of specific multimer+CD8+ lymphocytes was detected by appropriate gating and by comparing to negative control stimulations.

Row | Sequence | Wells positive/evaluable [%] | Donors positive/evaluable [%]
1 | AYAIIKEEL (listed as Homo sapiens) [ATAD2-001] | 3 | 33
2 | AYLVYTDRL (listed as Homo sapiens) [PPAP2C-001] | 29 | 83
3 | AYPTVKFYF (listed as Homo sapiens) [DNAJC10-002] | 3 | 33
4 | DYAYLREHF (listed as Homo sapiens) [ZNF598-001] | 17 | 83
5 | DYTIGFGKF (listed as Homo sapiens) [ITGB4-001] | 20 | 67
6 | FYISPVNKL (listed as Homo sapiens) [AVL9-001] | 31 | 100
7 | FYQPKIQQF (listed as Homo sapiens) [FANCI-001] | 1 | 17
8 | HYKPTPLYF (listed as Homo sapiens) [SMC4-001] | 10 | 73
9 | IFSKIVSLF (listed as Homo sapiens) [EIF2S3-001] | 1 | 17
10 | IYAPKLQEF (listed as Homo sapiens) [CCNE2-001] | 0 | 0
11 | IYLEVIHNL (listed as Homo sapiens) [DNAJC10-001] | 15 | 50
12 | IYNGKLFDLL (listed as Homo sapiens) [KIF2C-001] | 2 | 17
13 | IYPDASLLI (listed as Homo sapiens) [CEA-010] | 3 | 40
14 | KYLTVKDYL (listed as Homo sapiens) [ATAD2-002] | 1 | 17
15 | KYNDTFWKEF (listed as Homo sapiens) [HSP90B1-001] | 7 | 50
16 | LYLENIDEF (listed as Homo sapiens) [POLD3-001] | 7 | 67
17 | LYPEVFEKF (listed as Homo sapiens) [ATAD2-003] | 0 | 0
18 | LYQILQGIVF (listed as Homo sapiens) [CDC2-001] | 28 | 83
19 | MYMTVSIIDRF (listed as Homo sapiens) [CCNB1-003] | 3 | 33
20 | NYEETFPHI (listed as Homo sapiens) [MUC6-001] | 22 | 83
21 | NYLLYVSNF (listed as Homo sapiens) [MST1R-001] | 13 | 50
22 | NYLPFIMEL (listed as Homo sapiens) [UCHL5-001] | 12 | 75

Row | Sequence | Wells positive/evaluable [%] | Donors positive/evaluable [%]
23 | QYASRFVQL (listed as Homo sapiens) [PLK4-001] | 5 | 60
24 | QYIDKLNEL (listed as Homo sapiens) [CCDC88A-001] | 0 | 0
25 | RFLSGIINF (listed as Homo sapiens) [NUF2-002] | 6 | 50
26 | RYLEGTSCI (listed as Homo sapiens) [EPPK1-001] | 1 | 17
27 | RYLPKGFLNQF (listed as Homo sapiens) [PTK2-001] | 4 | 17
28 | RYLPQCSYF (listed as Homo sapiens) [CCND2-001] | 10 | 17
29 | RYLWATVTI (listed as Homo sapiens) [ASPM-001] | 3 | 17
30 | SYATLLHVL (listed as Homo sapiens) [GPR39-001] | 6 | 50
31 | SYIDVLPEF (listed as Homo sapiens) [MET-006] | 21 | 67
32 | SYIIDPLNL (listed as Homo sapiens) [PROM1-001] | 26 | 83
33 | SYLELVKSL (listed as Homo sapiens) [SDHC-001] | 3 | 33
34 | SYLQAANAL (listed as Homo sapiens) [COL6A3-001] | 0 | 0
35 | SYNPLWLRI (listed as Homo sapiens) [ASPM-002] | 32 | 67
36 | SYNVTSVLF (listed as Homo sapiens) [LCN2-001] | 1 | 17
37 | SYQKVIELF (listed as Homo sapiens) [PBK-001] | 0 | 0
38 | TYGNLLDYL (listed as Homo sapiens) [ABL1-001] | 18 | 83
39 | VFDTAIAHLF (listed as Homo sapiens) [SIAH2-001] | 8 | 50
40 | VFIFKGNQF (listed as Homo sapiens) [MMP3-001] | 1 | 11
41 | VWSDVTPLTF (listed as Homo sapiens) [MMP11-001] | 11 | 33
42 | VYFSKSEQL (listed as Homo sapiens) [EPHA2-005] | 0 | 0
43 | VYGIRLEHF (listed as Homo sapiens) [NUF2-001] | 50 | 100
44 | VYIEKNDKL (listed as Homo sapiens) [ERBB3-001] | – | 83
